As a reminder, the IC50 is the concentration needed to halve the response being measured. Lower therefore signals inhibition by little substance.

These results are taken from publication doi:10.1101/261990v1 (biorxiv, 2018).

Test [1] has as its target T1, MGIC (Myoinhibitory peptide-Gated Ion Channel; ENaC5) (Platynereis dumerilii, UniProt A0A2S1B6I3).
T1 sequence (A0A2S1B6I3 1-589): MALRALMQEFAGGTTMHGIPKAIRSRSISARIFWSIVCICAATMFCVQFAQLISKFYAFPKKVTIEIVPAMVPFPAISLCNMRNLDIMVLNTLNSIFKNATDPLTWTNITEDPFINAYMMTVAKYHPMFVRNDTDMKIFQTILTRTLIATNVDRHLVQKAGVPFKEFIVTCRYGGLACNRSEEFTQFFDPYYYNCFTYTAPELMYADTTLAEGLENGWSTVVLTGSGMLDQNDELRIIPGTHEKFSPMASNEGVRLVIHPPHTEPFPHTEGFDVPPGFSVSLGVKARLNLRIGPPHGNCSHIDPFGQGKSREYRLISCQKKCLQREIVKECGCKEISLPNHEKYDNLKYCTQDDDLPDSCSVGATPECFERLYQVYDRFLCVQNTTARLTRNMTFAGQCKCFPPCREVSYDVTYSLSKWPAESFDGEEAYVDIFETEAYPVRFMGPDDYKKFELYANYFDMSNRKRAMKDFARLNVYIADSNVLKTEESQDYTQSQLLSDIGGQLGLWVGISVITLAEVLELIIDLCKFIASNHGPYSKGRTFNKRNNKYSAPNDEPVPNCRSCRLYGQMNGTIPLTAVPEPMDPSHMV
Put plainly: two-electrode voltage clamp, Xenopus oocytes. It counts as cell-based. A general note: Two-electrode voltage clamp holds a large cell at a set potential and records current.

Test [2] concerns the target T1, MGIC (Myoinhibitory peptide-Gated Ion Channel; ENaC5). Put plainly: two-electrode voltage clamp, Xenopus oocytes. The test is classed as cell-based. The settings on record: read-out: % of control current at 50 μM.

In test [1], `N=C(N)c1ccc(/N=N/Nc2ccc(C(=N)N)cc2)cc1` [diminazene] displayed an IC50 of 0.73 ± 0.16 µM.

On to `NC(=NC(=O)c1nc(Cl)c(N)nc1N)NCc1ccccc1` [benzamil], for which the remaining activity at 50 µM in test [2] amounted to 74 ± 3%.

As for `N=C(N)NC(=O)c1nc(Cl)c(N)nc1N` [amiloride], half-maximal inhibition in test [1] (IC50) required 13 ± 2 µM.

As to `NC(=NC(=O)c1nc(Cl)c(N)nc1N)Nc1ccccc1` [phenamil], the remaining activity at 50 µM in test [2] stood at 45 ± 4%.
